What was measured:
CYP3A4 = molecular target: T1, CYP3A4 (Homo sapiens, UniProt P08684); assay: CYP3A4 inhibition (midazolam metabolism in human liver microsomes); type: in vitro ADME; conditions: substrate midazolam, read-out: CYP 3A4Ki
T1 construct: host or cells: human liver microsomes
Procedure, shortened: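 Human liver microsomes (0.1 mg/mL) with midazolam at 1.25–10 μM and compound at 0.078–10 μM, in 100 mM phosphate pH 7.4 with NADPH regeneration at 37.2 °C, sampled at 20, 30 and 40 min. 1′-Hydroxymidazolam was quantified by LC-MS/MS. Ki was obtained by Dixon plots across substrate concentrations.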

memapsin 2 [1] = molecular target: memapsin 2 (Homo sapiens, UniProt P56817); assay: Inhibition of memapsin 2 beta-secretase activity (fluorogenic substrate FS-2); type: biochemical; conditions: pH 4, 37° C., read-out: M2 Ki
Procedure, shortened: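 Memapsin 2 pre-incubated with compound for 20 min at pH 4, 37° C. Reaction started with fluorogenic substrate FS-2, […], derived from Swedish-variant APP beta-secretase site; inhibition measured from fluorescence.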

memapsin 2 [2] = molecular target: T2, memapsin 2 (Cricetulus griseus, UniProt G3IAK4); assay: Cellular Aβ IC50 determination (Aβ40 sandwich ELISA); type: cell-based, Chinese hamster; conditions: CHO cells over-expressing human APP695 with London and Swedish mutations, 24 h, read-out: M2 IC50
T2 construct: endogenous in cells; host or cells: Chinese hamster ovary cells over-expressing human APP695 (London + Swedish)
Procedure, shortened: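 CHO cells overexpressing human APP695 (London and Swedish mutations) treated 48 h post-seeding with serially diluted compounds (top near 4 μM, 0.4% DMSO), 24 h at 37° C, 5% CO2. Medium Aβ40 measured by sandwich ELISA; levels relative to control fitted to 4-parameter IC50 model.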

cathepsin D = cathepsin D (Homo sapiens, UniProt P07339); assay: Inhibition of cathepsin D activity (MALDI-TOF, substrate ELDLAVEFWHDR); type: biochemical; conditions: substrate peptide ELDLAVEFWHDR, pH 4.1, 37 degrees C, read-out: CD Ki
Protocol: [The source words this procedure for another target and reports this target under the same test.] A substrate peptide NH3-ELDLAVEFWHDR-CO2 (SEQ ID NO.: 1) was dissolved at 2 mg/mL in 10% glacial acetic acid and diluted into 0.009M NaOH to obtain μM concentration at pH 4.1. After equilibration at 37 degrees C., the reactions were initiated by the addition of an aliquot of memapsin 2. Aliquots were removed at time intervals, and combined with an equal volume of MALDI-TOF matrix (α-hydroxycinnamic acid in acetone, 20 mg/mL) and immediately spotted in duplicate onto a stainless-steel MALDI sample plate. MALDI-TOF mass spectrometry was performed on a PE Biosystems Voyager DE. The instrument was operated at 25,000 accelerating volts in positive mode with a 150 ns delay. Ions with a mass-to-charge ratio (m/z) were detected in the range of 650-2000 atomic mass units. Data were analyzed by the Voyager Data Explorer module to obtain ion intensity data for mass species of substrates and corresponding products in a given mixture. Relative product formation was calculated as the ratio of signal intensity of the product to the sum of signal intensities of both product and the corresponding substrate. Relative product formed per unit time was obtained from non-linear regression analysis of the data representing the initial 15% formation of product using the model:
where k was the relative hydrolytic rate constant and T was time in seconds. Initial rates were expressed relative to uninhibited controls and fit to a tight-binding model of competitive inhibition as above.

[3] = Hepatic intrinsic clearance in liver microsomes; type: in vitro ADME; conditions: human, pH 7.4, human liver microsomes, in vitro clearance, read-out: HLM CL
Protocol: To 500 μl of 200 mM Na^+K^+phosphate buffer (pH 7.4), 100 μl of 1 mM EDTA solution was added followed by 100 μl of 2 mg protein/ml human liver microsomes. A 10 μl aliquot of test compound (20 mM stock in 50% acetonitrile) was diluted further with 40 μl of H2O (total assay volume […]. Assay mixture is incubated for 5 minutes at 37° C. The assay was initiated by addition of 250 μl of 4 mM NADPH solution. Incubation was continued at 37° C. Separate reaction mixtures were prepared for 0, 5, 10, 20, and 30 min durations. Individual reactions were halted by addition of 150 μl of 100% acetonitrile. Internal standard (10 μl of 100 ng/ml diazepam solution) was added. Concentration of the test compound in each separate reaction was measured using LC/MS/MS and a standard curve for the test compound according to standard procedures.
The hepatic intrinsic clearance in liver microsome was determined by the following procedure described by Davies and Morris (Davies, B. and Morris, T. (19930) Physiological parameters in laboratory animals and humans. Pharm Res. 10:1093-1095) detailing the relationship of in vitro clearance to physiological parameters in animals and human subjects.
The amount of compound remaining at each time point was expressed relative to the amount present in the initial (0 min) incubation. The relationship of relative amount vs. time was used to determine the half life of the compound in the microsome assay. The concentration independent rate constant, k1, was determined from rectangular hyperbolic fit:
where T is time (in minutes), from the relationship of relative amount vs. time. Alternatively, k1 was determined from a transform of the equation, where
Conversion to in vivo clearance was obtained from the relation (Davies and Morris, 1993):
where v=velocity of metabolism, [S] is the concentration of the compound, and volumes are expressed in mL.

Chain of cathepsin D (P07339 65-412, species assumed): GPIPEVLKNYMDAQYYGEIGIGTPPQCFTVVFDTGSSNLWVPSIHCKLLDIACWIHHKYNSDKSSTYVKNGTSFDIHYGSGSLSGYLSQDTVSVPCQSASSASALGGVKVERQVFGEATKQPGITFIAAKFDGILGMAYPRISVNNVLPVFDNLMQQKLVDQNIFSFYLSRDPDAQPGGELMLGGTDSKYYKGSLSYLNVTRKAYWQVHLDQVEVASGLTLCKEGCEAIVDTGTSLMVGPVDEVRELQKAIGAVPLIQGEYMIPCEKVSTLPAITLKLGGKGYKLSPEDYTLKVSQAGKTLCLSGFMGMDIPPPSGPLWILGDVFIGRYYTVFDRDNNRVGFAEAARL
Chain of memapsin 2 (Homo sapiens, UniProt P56817) (P56817 46-501): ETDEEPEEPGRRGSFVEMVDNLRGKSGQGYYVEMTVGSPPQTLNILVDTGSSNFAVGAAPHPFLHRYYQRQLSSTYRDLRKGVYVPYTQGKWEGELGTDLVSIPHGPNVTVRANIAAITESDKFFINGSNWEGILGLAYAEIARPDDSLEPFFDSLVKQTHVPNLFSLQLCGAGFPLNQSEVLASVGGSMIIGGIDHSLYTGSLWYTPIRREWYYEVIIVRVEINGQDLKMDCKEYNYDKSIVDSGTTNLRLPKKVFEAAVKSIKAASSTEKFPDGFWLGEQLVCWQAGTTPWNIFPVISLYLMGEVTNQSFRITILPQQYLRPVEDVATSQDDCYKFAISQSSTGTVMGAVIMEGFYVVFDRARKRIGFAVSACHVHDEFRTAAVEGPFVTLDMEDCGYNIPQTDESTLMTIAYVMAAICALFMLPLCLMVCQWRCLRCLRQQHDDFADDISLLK
T1 sequence (P08684 whole entry): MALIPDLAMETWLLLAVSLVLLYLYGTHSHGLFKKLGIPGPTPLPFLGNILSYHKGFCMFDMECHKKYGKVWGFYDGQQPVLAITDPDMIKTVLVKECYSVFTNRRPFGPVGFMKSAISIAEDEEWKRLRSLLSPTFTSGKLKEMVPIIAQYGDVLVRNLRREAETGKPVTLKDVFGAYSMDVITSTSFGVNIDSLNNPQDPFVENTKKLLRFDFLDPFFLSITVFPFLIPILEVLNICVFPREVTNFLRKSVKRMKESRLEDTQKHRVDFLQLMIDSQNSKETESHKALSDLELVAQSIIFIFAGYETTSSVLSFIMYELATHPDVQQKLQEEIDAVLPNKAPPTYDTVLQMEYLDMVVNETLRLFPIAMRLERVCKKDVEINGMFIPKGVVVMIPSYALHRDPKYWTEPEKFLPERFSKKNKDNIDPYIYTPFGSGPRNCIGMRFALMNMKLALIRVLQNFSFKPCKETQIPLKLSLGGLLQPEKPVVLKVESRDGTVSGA
T2 sequence (G3IAK4 22-501): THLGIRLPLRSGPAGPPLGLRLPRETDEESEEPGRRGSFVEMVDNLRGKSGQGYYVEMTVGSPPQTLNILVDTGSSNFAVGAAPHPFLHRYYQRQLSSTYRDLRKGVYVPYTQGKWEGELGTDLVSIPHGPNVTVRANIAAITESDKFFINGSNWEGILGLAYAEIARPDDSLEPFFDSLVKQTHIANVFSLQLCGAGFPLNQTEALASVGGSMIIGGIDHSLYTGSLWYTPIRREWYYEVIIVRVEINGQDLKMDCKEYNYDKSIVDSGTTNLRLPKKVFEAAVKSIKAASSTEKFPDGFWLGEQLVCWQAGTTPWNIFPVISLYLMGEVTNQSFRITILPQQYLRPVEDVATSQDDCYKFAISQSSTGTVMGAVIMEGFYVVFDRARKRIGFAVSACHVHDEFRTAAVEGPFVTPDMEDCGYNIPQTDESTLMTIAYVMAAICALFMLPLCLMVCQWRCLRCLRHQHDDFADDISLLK

SMILES	Ki (CYP3A4) [nM]	Ki (memapsin 2 [1]) [nM]	IC50 (memapsin 2 [2]) [nM]	Ki (cathepsin D) [nM]	CLint scaled at 200 μM [3] [mL/min/kg]
Cc1csc([C@H]2CCCN2C(=O)c2cc(C(=O)N[C@@H](Cc3ccccc3)[C@H](O)[C@H]3CCCN3)cc(-c3ncco3)c2)n1 [1-19, N-((1R,2S)-1-hydroxy-3-phenyl-1-((R)-pyrrolidin-2-yl)propan-2-yl)-3-((R)-2-(4-methylthiazol-2-yl)pyrrolidine-1-carbonyl)-5-(oxazol-2-yl)benzamide]	> 10000	< 250	< 500	> 500	
Cc1csc([C@H]2CCCN2C(=O)c2cccc(C(=O)N[C@@H](Cc3ccccc3)[C@H](O)[C@H]3C[C@@H](OCc4ccccc4)CN3)c2)n1 [1-22, N-((1R,2S)-1-((2R,4R)-4-(benzyloxy)pyrrolidin-2-yl)-1-hydroxy-3-phenylpropan-2-yl)-3-((R)-2-(4-methylthiazol-2-yl)pyrrolidine-1-carbonyl)benzamide]	1000 to 5000	< 250	< 500	300 to 500	
Cc1csc([C@H]2CCCN2C(=O)c2cc(C(=O)N[C@@H](Cc3ccccc3)[C@H](O)[C@H]3CCCN3)cc(N(C)S(C)(=O)=O)c2)n1 [1-23, N-((1R,2S)-1-hydroxy-3-phenyl-1-((R)-pyrrolidin-2-yl)propan-2-yl)-3-(N-methylmethylsulfonamido)-5-((R)-2-(4-methylthiazol-2-yl)pyrrolidine-1-carbonyl)benzamide]	5000 to 10000	< 250	< 500	> 500	
Cc1csc([C@H]2CCCN2C(=O)c2cc(C(=O)N[C@@H](Cc3ccccc3)[C@H](O)[C@H]3CCCN3)cc(-c3cccc(C(F)(F)F)c3)c2)n1 [1-43, N-((1R,2S)-1-hydroxy-3-phenyl-1-((R)-pyrrolidin-2-yl)propan-2-yl)-5-((R)-2-(4-methylthiazol-2-yl)pyrrolidine-1-carbonyl)-3′-(trifluoromethyl)biphenyl-3-carboxamide]		< 250	> 1000	> 500	< 400
Cc1csc([C@H]2CCCN2C(=O)c2cccc(C(=O)N[C@@H](Cc3cc(F)cc(F)c3)[C@H](O)[C@H]3CCCN3)c2)n1 [1-44, N-((1R,2S)-3-(3,5-difluorophenyl)-1-hydroxy-1-((R)-pyrrolidin-2-yl)propan-2-yl)-3-((R)-2-(4-methylthiazol-2-yl)pyrrolidine-1-carbonyl)benzamide]	1000 to 5000	< 250	500 to 1000	> 500	< 400
Cc1csc([C@H]2CCCN2C(=O)c2cc(C(=O)N[C@@H](Cc3cc(F)cc(F)c3)[C@H](O)[C@H]3CCCN3)cc(-c3ncco3)c2)n1 [1-49, N-((1R,2S)-3-(3,5-difluorophenyl)-1-hydroxy-1-((R)-pyrrolidin-2-yl)propan-2-yl)-3-((R)-2-(4-methylthiazol-2-yl)pyrrolidine-1-carbonyl)-5-(oxazol-2-yl)benzamide]		< 250	< 500	< 300	
Cc1cc(C(=O)N[C@@H](Cc2cc(F)cc(F)c2)[C@H](O)[C@H]2CCCN2)cc(C(=O)N2CCC[C@@H]2c2nc(C)cs2)c1 [1-64, N-((1R,2S)-3-(3,5-difluorophenyl)-1-hydroxy-1-((R)-pyrrolidin-2-yl)propan-2-yl)-3-methyl-5-((R)-2-(4-methylthiazol-2-yl)pyrrolidine-1-carbonyl)benzamide]		< 250		> 500	
Cc1coc([C@H]2CCCN2C(=O)c2cc(C(=O)N[C@@H](Cc3cc(F)cc(F)c3)[C@H](O)[C@H]3CCCN3)cc(-c3ncco3)c2)n1 [1-69, N-((1R,2S)-3-(3,5-difluorophenyl)-1-hydroxy-1-((R)-pyrrolidin-2-yl)propan-2-yl)-3-((R)-2-(4-methyloxazol-2-yl)pyrrolidine-1-carbonyl)-5-(oxazol-2-yl)benzamide]		< 250		300 to 500	
C=CCO[C@H]1CN[C@@H]([C@@H](O)[C@H](Cc2ccccc2)NC(=O)c2cc(C(=O)N3CCC[C@@H]3c3nc(C)cs3)cc(-c3ncco3)c2)C1 [1-70, N-((1R,2S)-1-((2R,4R)-4-(allyloxy)pyrrolidin-2-yl)-1-hydroxy-3-phenylpropan-2-yl)-3-((R)-2-(4-methylthiazol-2-yl)pyrrolidine-1-carbonyl)-5-(oxazol-2-yl)benzamide]		< 250		< 300	
Cc1csc([C@H]2CCCN2C(=O)c2cc(I)cc(C(=O)N[C@@H](Cc3ccccc3)[C@H](O)[C@H]3CCCN3)c2)n1 [1-71, N-((1R,2S)-1-hydroxy-3-phenyl-1-((R)-pyrrolidin-2-yl)propan-2-yl)-3-iodo-5-((R)-2-(4-methylthiazol-2-yl)pyrrolidine-1-carbonyl)benzamide]		< 250		> 500	
Cc1csc([C@H]2CCCN2C(=O)c2cccc(C(=O)N[C@@H](Cc3ccccc3)[C@H](O)[C@H]3C[C@@H](Oc4ccccc4)CN3)c2)n1 [1-74, N-((1R,2S)-1-hydroxy-1-((2R,4R)-4-phenoxypyrrolidin-2-yl)-3-phenylpropan-2-yl)-3-((R)-2-(4-methylthiazol-2-yl)pyrrolidine-1-carbonyl)benzamide]		< 250		> 500	
Cc1csc([C@H]2CCCN2C(=O)c2cc(C(=O)N[C@@H](Cc3ccccc3)[C@H](O)[C@H]3CCCN3)cc(N3CCCCS3(=O)=O)c2)n1 [1-78, N-((1R,2S)-1-hydroxy-3-phenyl-1-((R)-pyrrolidin-2-yl)propan-2-yl)-3-((R)-2-(4-methylthiazol-2-yl)pyrrolidine-1-carbonyl)-5-(thiazinanyl-S,S-dioxide)benzamide]		< 250		> 500	
Cc1csc([C@H]2CCCN2C(=O)c2cc(C(=O)N[C@@H](Cc3ccccc3)[C@H](O)[C@H]3C[C@@H](Oc4ccccc4)CN3)cc(-c3ncco3)c2)n1 [1-79, N-((1R,2S)-1-hydroxy-1-((2R,4R)-4-phenoxypyrrolidin-2-yl)-3-phenylpropan-2-yl)-3-((R)-2-(4-methylthiazol-2-yl)pyrrolidine-1-carbonyl)-5-(oxazol-2-yl)benzamide]		< 250		300 to 500	
Cc1coc([C@H]2CCCN2C(=O)c2cc(CF)cc(C(=O)N[C@@H](Cc3ccccc3)[C@H](O)CNCc3cccc(C(C)(C)C)c3)c2)n1 [2-7, N-((2S,3R)-4-(3-tert-butylbenzylamino)-3-hydroxy-1-phenylbutan-2-yl)-3-(fluoromethyl)-5-((R)-2-(4-methyloxazol-2-yl)pyrrolidine-1-carbonyl)benzamide, reference compound]	1000 to 5000	< 250	< 500		> 700
